# Measured values as given in patent publication US11464753B2, “Composition for treatment of neurodegenerative disease” (WINNING THE FIGHT INC., priority 2013, dated 2022).
# Entries after “also recorded” stand apart in the source; their conditions may differ.
# Legend:
# [1] = system: ALS patients; experiment: Administration of AKG-containing compositions to human ALS patients, observation of symptoms
# Procedure: In one example, 250 mg of GABA was administered three times per day per os, 30 mg of NADH was administered twice per day sublingually, and 3 grams of AAKG were administered, initially, four times per day per os, with the dosage gradually increasing up to 18 grams, if tolerated by the patient.
# [2] = system: patients suffering from neurodegenerative diseases; experiment: Oral AKG in patients suffering from neurodegenerative diseases; format: in vivo, human
# Source text: Initial results in mutant SOD1 mice show similar benefits compared to controls, when administered one example of the composition. […] In some instances, progression of the diseases were delayed or even reversed in human patients.
# In Example A of Table A a sustained release formulation of […] is preferred.
# For example, an […] ([…] or […]) is included in a composition to be used by patients with a neurodegenerative disease at a baseline dosage.
# Results for people with various neurodegenerative diseases have shown that a core composition taken three times daily can provide a combination of supplements that are needed by the patients.
SMILES,"muscle tone and muscle spasticity ([1]; GABA administered as a supplement, patients with neurodegenerative diseases such as ALS)",improvement at sub-optimal dosage ([2]; AKG dosage of only six to eight grams),"symptoms when AKG was withheld ([2]; AKG withheld from a patient, then recommenced)","symptoms of neurodegenerative disease ([2]; human patients (ALS, Alzheimers, Muscular Distrophy) taking AKG)","improvement with hourly AKG ([1]; human patient, AKG supplement hourly during waking hours compared to four times per day)",symptoms of ALS after withdrawal of AKG ([1]; withdrawal for a short period (a few days))
"NCCCC(=O)O [GABA, gamma aminobutyric acid]",restore muscle tone; also recorded: diminished muscle spasticity,–,–,–,–,–
"O=C(O)CCC(=O)C(=O)O [AKG, alpha-ketoglutaric acid]",–,some improvement,symptoms returned,"fewer symptoms of the diseases; also recorded: marked, obvious improvements",marked improvement,return of symptoms of ALS
